Measurements from patent US20260327264A1, “PEPTIDE INHIBITORS OF INTERLEUKIN-23 RECEPTOR” (Zealand Pharma A/S, priority 2023, published 2026).
Where two headings read alike, the source gives them in different places. *1 amine or outer side, *2 acyl side, *3 side chain or, on linkers, in order; H or OH if unused. Where a SMILES comes first, the peptide text is derived from it. Bridges are numbered along the chain shown (N, C = ends). [ ]: non-standard residue; d: D form. 2Nal = N[C@@H](Cc1ccc2ccccc2c1)C(=O)O; AEF = NCCOc1ccc(C[C@H](N)C(=O)O)cc1; X1 = O=C(Cc1ccc(CN[*:1])cc1)[*:2]; 3Pal = N[C@@H](Cc1cccnc1)C(=O)O; αMeL = CC(C)C[C@](C)(N)C(=O)O; Dab = NCC[C@H](N)C(=O)O; Sar = CNCC(=O)O

What was measured:
[1] = system: IL-23 mediated IFN-γ secretion (human whole blood); test: Functional inhibition of IL-23 mediated IFN-γ secretion in human whole blood; format: cell-based; conditions: Table 3-5, hIL-23 EC80 with hIL-2 and hIL-18
From the text: An in vitro human whole blood assay was used to assess the ability of IL23-R inhibitor compounds to inhibit IL-23-mediated IFN-γ secretion. The assay quantifies the functional antagonism of the IL23R inhibitors may be used to rank inhibitor potencies based on concentration response curves (CRCs) generated in the presence of fixed IL-23, IL-2 and IL-18 concentrations. […] and maximal inhibitory response may be calculated from the curves.
Human blood was obtained from voluntary donors at Blodbanken Hvidovre Hospital, Denmark on the day of the experiment by collection in BD Sodium-Heparin Vacutainer tubes [Cat #367876, Avantor].
The buffer used consisted of RPMI-1640 [Cat #61870-010; Thermo Fisher Scientific] supplemented with 1% V/V Penicillin-Streptomycin (Pen-Strep) Solution [Cat #15140; Thermo Fisher Scientific] and 1 mM Sodium Pyruvate [Cat #11360-039, Thermo Fisher Scientific] and 25 mM HEPES buffer [Cat #15630-056, Thermo Fisher Scientific] and 0.05% V/V Casein [Cat #C4765, Sigma-Aldrich] (hereafter referred to as assay buffer). […] A stimulatory solution of hIL-23 [Cat #11349-IL; R&D systems] corresponding to 4× the EC80 of hIL-23 (1.6 ng/ml) together with 4× hIL-2 [Cat #BT-002; R&D systems] (40 ng/ml) and 4× hIL-18 [Cat #9124-IL; R&D systems] (80 ng/ml) were also prepared in Assay buffer. To initiate the assay, 25 μL of the prepared 4× diluted test compound was added to the wells of a 96 well plate [Cat #167425; Thermo Scientific] followed by addition of 50 μL human whole blood to each well. Following the preincubation of the blood and inhibitor for 15 min in a cell incubator (37° C., 5% CO2), 25 μL of the prepared 4× stimulatory solution was added to each well and incubated for 16-24 hours in a humidity chamber in a cell incubator (37° C., 5% CO2).
To terminate the assay, 100 μL PBS pH 7.4 [Cat #10010-015; Thermo Fisher Scientific] was added to each well and the plate was spun at 350×G for ten minutes to pellet the blood. The supernatant was removed and added to a 96 well V-bottom Polypropylene plate [Corning 3363] using an 8-channel manual pipette.
Samples were diluted an additional 30× in Diluent 57 buffer from the MSD U-PLEX human IFN-γ assay [Cat #K151TTK-2; Mesoscale Discovery].
The IFN-γ level in the supernatant from the individual wells was determined using the MSD U-PLEX human IFN-γ assay kit [Cat #K151TTK-2; Mesoscale Discovery] and read on a Meso QuickPlex SQ 120 plate reader (Mesoscale Discovery).
For data analysis, raw data counts from the Meso QuickPlex SQ 120 plate reader were converted to concentrations of IFN-γ by using the standard curved supplied with the kit. Compound potency (IC50) and maximal inhibition (% inhibition) was estimated by computer-aided curve fitting using a 4-parameter logistic (4PL) non-linear mode. […] Maximal inhibition was expressed as a percentage where 0% is the activity level induced by the reference agonist alone ([…] together with IL-2 and IL-18 as indicated above), and 100% is the baseline activity level of the unstimulated receptor in the absence of the reference agonist.
Typically compounds with a low IC50 are desired. Typically compounds capable of completely inhibiting the IL23-induced response are desired.

human IL-23R = target: T1, human IL-23R (Homo sapiens, UniProt Q5VWK5); test: Binding assay: displacement of fluorophore (TAMRA)-labelled reference compound from human IL-23R (BRET, Nluc-IL23R fusion protein membranes); conditions: for potency of the compound (in words): potency against IL-23R; for Emax: read-out: % displacement (hIL-23R binding)
T1 construct: Nanoluc luciferase (Nluc); secretion signal encoded by the plasmid (not specified); expressed in transfected cells; crude membranes used in the assay
T1 sequence (Q5VWK5 22-629): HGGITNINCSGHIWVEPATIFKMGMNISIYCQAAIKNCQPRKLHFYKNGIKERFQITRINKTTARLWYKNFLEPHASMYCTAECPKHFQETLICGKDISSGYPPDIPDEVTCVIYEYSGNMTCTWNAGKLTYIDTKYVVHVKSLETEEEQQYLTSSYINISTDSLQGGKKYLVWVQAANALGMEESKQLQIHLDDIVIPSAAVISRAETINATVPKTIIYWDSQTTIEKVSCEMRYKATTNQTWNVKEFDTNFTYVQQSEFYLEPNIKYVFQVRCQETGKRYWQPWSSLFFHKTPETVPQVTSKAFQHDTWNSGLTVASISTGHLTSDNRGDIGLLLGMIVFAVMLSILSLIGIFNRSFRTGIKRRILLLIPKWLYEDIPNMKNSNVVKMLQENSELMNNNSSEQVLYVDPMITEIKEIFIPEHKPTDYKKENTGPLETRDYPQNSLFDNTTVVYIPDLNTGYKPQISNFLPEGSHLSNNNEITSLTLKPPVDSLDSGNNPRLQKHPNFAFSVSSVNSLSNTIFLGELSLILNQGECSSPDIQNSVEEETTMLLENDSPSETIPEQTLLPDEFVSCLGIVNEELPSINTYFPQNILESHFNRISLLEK
From the text: The assay principle relies on Bioluminescence Resonance Energy Transfer (BRET) between a fluorophore-labelled reference compound binding to the IL-23R part of a fusion protein consisting of the IL-23R fused to a Nanoluc luciferase enzyme (Nanoluc). The Nanoluc is placed in the N-terminus in close proximity to the binding domain of the ligand. Upon close proximity between the fluorophore of the fluorophore-labelled compound and the Nanoluc of the fusion protein, bioluminescence energy generated from conversion of a Nanoluc substrate, is transferred to the fluorophore resulting in an increase in BRET. In presence of an unlabelled compound, the unlabelled compound displaces the fluorophore-labelled peptide from its binding site resulting in a decrease in BRET. The concentration for which half of the fluorophore-labelled peptide is displaced by the unlabelled compound depends on the affinity of the compound for the IL-23R, and is termed the IC50 concentration.
The plasmid also contained a gene to confer resistance for the antibiotic hygromycin. A cell line stably expressing the Nluc-IL23R fusion protein was generated by transfection of HEK293 cells with the expression plasmid and selected with hygromycin for 3 weeks in Growth medium consisting of DMEM w/Glutamax-I containing, 10% V/V FBS, 1% V/V P/S, 1 mM Sodium Pyruvate, and 1× NEAA, and 0.3 mg/mL hygromycin. The remaining cells were propagated and considered a stable expressing Nluc-IL23R fusion protein pool clone.
Cells expressing the Nluc-IL23R fusion protein were expanded in Growth medium and membranes prepared by homogenization of a cell pellet from 18 T175 flasks (4° C. in subsequent steps). The cell pellet was lysed Tris 10 mM, 7.5, 1 mM EDTA and protease inhibitors (Complete, Roche) and homogenized using a 15 mL glass-dounce by 50 strokes. The homogenate was spun at spin @1500 rpm for 10 min, the supernatant transferred to SV-34 tubes and spun at 40000 g for 20 min at 4° C. to pellet the crude membranes. The supernatant was then removed, the pellet resuspended in 5 mL buffer containing 50 mM HEPES pH 7.4, 5 mM EGTA, and 5 mM MgCl2, and homogenized. Aliquots of the resuspended and homogenized membranes containing the Nluc-IL23R fusion protein were stored at −80° C. until use.
The plate was sealed with light impermeable plate seals, and incubated on an orbital shaker 400 rpm for 2 hours at room temperature. To determine the BRET ratio, the plate seal was removed and 25 μL of the Nanoluc substrate (Promega N1572) diluted 1:500 was added to each well and incubated for 1-2 minutes on an orbital shaker at 400 rpm. […] The BRET ratio was calculated as the fluorescence from the TAMRA/nanoluc bioluminescence.
Compound potency (IC50) and maximal displacement (% displacement) were estimated by computer-aided curve fitting using a 4-parameter logistic (4PL) non-linear model. The IC50 and maximal for each compound was determined by computer-aided curve fitting using a 4-parameter logistic (4PL) non-linear model.

[2] = system: IL-23 mediated STAT3 signalling (DB cells); test: Functional inhibition of IL-23 mediated STAT3 signalling (phospho-STAT3 Tyr705) in DB cells; format: cell-based, human; conditions: for hIL-23 (pSTAT3) antagonist % inhibition: Table 3-2, maximal inhibitory response, EC80 of hIL-23
Outline: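 Phospho-STAT3 in lysed DB cells quantified by MSD kit after 90 min exposure to EC80 human IL-23, following 15 min compound pretreatment (37° C, 5% CO2). IC50 and maximal inhibition derived from curves normalized between IL-23-only and buffer-only controls.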

[3] = EC80 of hIL-23, read-out: IC50 (pSTAT3)
[4] = Table 3-2, EC80 of hIL-23, read-out: hIL-23 (pSTAT3) antagonist IC50

SMILES	IC50 [1] [nM]	maximal inhibition (%) [1] [%]	potency of the compound (in words) (human IL-23R)	Emax (human IL-23R) [%]	IC50 [2, 3] [nM]	IC50 [2, 4] [nM]	hIL-23 (pSTAT3) antagonist % inhibition [2] [%]	IC50 (human IL-23R) [nM]
CC(C)C[C@]1(C)NC(=O)[C@H](Cc2ccc3ccccc3c2)NC(=O)[C@H](Cc2ccc(OCCN)cc2)NC(=O)[C@@H]2CCNC(=O)CC[C@H](NC(=O)[C@H](CO)NC(=O)Cc3ccc(cc3)CNC(=O)CC[C@@H](C(=O)N[C@@H](CCN)C(=O)N[C@@H](Cc3cccnc3)C(=O)N(C)CC(N)=O)NC1=O)C(=O)N[C@@H](Cc1c[nH]c3ccccc13)C(=O)N[C@@H](CCC(N)=O)C(=O)N2 [Compound 9, [4-Aminomethyl-phenylacetyl](1c)*SE(2c)WQ[Dab](2c)[Y(2-aminoethoxy)][2-Nal][2-Me-Leu]E(1c)[Dab][3-(3-Pyridyl)-Ala][Sar]-[NH2]] ([X1]SEWQ[Dab][AEF][2Nal][αMeL]E[Dab][3Pal][Sar]-NH2; lactam 3-6, N-10)	0.21	97	particularly potent	100	0.025	0.025	97	
CNC(=O)[C@H](Cc1cccnc1)NC(=O)[C@H](CCN)NC(=O)[C@@H]1CCC(=O)NCc2ccc(cc2)CC(=O)N[C@@H](CO)C(=O)N[C@H]2CCC(=O)NCC[C@H](NC(=O)[C@H](CCC(N)=O)NC(=O)[C@H](Cc3c[nH]c4ccccc34)NC2=O)C(=O)N[C@@H](Cc2ccc(OCCN)cc2)C(=O)N[C@@H](Cc2ccc3ccccc3c2)C(=O)N[C@@](C)(CC(C)C)C(=O)N1 [Compound 8, [4-Aminomethyl-phenylacetyl](1c)*SE(2c)WQ[Dab](2c)[Y(2-aminoethoxy)][2-Nal][2-Me-Leu]E(1c)[Dab][3-(3-Pyridyl)-Ala]-[NHMe]]	0.33	96	particularly potent	103	0.053	0.053	101	
CNC(=O)[C@H](Cc1cccnc1)NC(=O)[C@H](CCN)NC(=O)[C@@H]1CCC(=O)NCc2ccc(cc2)CC(=O)N[C@@H](C)C(=O)N[C@H]2CCC(=O)NCC[C@H](NC(=O)[C@H](CCC(N)=O)NC(=O)[C@H](Cc3c[nH]c4ccccc34)NC2=O)C(=O)N[C@@H](Cc2ccc(OCCN)cc2)C(=O)N[C@@H](Cc2ccc3ccccc3c2)C(=O)N[C@@](C)(CC(C)C)C(=O)N1 [Compound 20, [4-Aminomethyl-phenylacetyl](1c)*AE(2c)WQ[Dab](2c)[Y(2-aminoethoxy)][2-Nal][2-Me-Leu]E(1c)[Dab][3-(3-Pyridyl)-Ala]-[NHMe]]	0.64	97		97		0.026	101	
CNC(=O)[C@H](Cc1cccnc1)NC(=O)[C@H](CCN)NC(=O)[C@@H]1CCC(=O)NCc2ccc(cc2)CC(=O)N[C@@H](C)C(=O)N[C@H]2CCC(=O)NCC[C@H](NC(=O)[C@H](CCC(N)=O)NC(=O)[C@H](Cc3c[nH]c4ccccc34)NC2=O)C(=O)N[C@@H](Cc2c[nH]c3ncccc23)C(=O)N[C@@H](Cc2ccc3ccccc3c2)C(=O)NC(C)(C)C(=O)N1 [Compound 43, [4-Aminomethyl-phenylacetyl](1c)*AE(2c)WQ[Dab](2c)[7-AzaTrp][2-Nal][Aib]E(1c)[Dab][3-(3-Pyridyl)-Ala]-[NHMe]]	3.9	102		101		0.54	98	
CNC(=O)CC[C@@H]1NC(=O)[C@H](Cc2c[nH]c3ccccc23)NC(=O)[C@@H]2CCC(=O)NCC[C@H](NC1=O)C(=O)N[C@@H](Cc1ccc(OCCN)cc1)C(=O)N[C@@H](Cc1ccc3ccccc3c1)C(=O)N[C@@](C)(CC(C)C)C(=O)N[C@H](C(=O)N[C@@H](CCN)C(=O)N[C@@H](Cc1cccnc1)C(=O)NC)CCC(=O)NCc1ccc(cc1)CC(=O)N[C@@H](CO)C(=O)N2 [Compound 29, [4-Aminomethyl-phenylacetyl](1c)*SE(2c)W[Q(Me)][Dab](2c)[Y(2-aminoethoxy)][2-Nal][2-Me-Leu]E(1c)[Dab][3-(3-Pyridyl)-Ala]-[NHMe]] ([X1]SEWE(NHMe)[Dab][AEF][2Nal][αMeL]E[Dab][3Pal]-NHMe; lactam 3-6, N-10)	0.54	96		96		0.042	99	0.011
